Measurements published in patent US20220411362A1, “DITERPENOID COMPOUNDS THAT ACT ON PROTEIN KINASE C (PKC)” (K-Gen, Inc., priority 2019, published 2022).
Read-outs that look alike come from different tables or passages of the source.

Columns and labels:
[1] = system: A549 non-small cell lung cancer cell line; assay: Proliferation of A549 (CellTiter Glo); format: cell-based; conditions: Homo sapiens, read-out: IC50 μM (A549 Cell Line)
Procedure: The diterpenoid compounds were tested in A549, a non-small cell lung cancer cell line harboring a K-Ras activating mutation. Briefly, A549 cells at a density of 1,000 cells/well were seeded in 96-well plates and incubated at 37° C. for 24 hours. A series of different concentrations of compound stocks (500×) were prepared by 3-fold serial dilution in DMSO. These compounds were further diluted in culture media and then added to cells so that the final DMSO concentration was not exceeding 0.25%. After 96 hours of incubation, 50 μL of CellTiter Glo reagent (Promega) was added to each well and luminescence was measured after 10 minutes using EnVision (PerkinElmer). Luminescence from cells treated with DMSO alone was set as Max and % of inhibition was calculated as follows: Inhibition %=(Max−Sample value)/Max×100. Data was analyzed using XL-fit software (ID Business Solutions Ltd.) and IC50, relative IC50, and % of top inhibition was calculated. Some of the compounds in this disclosure were very potent in blocking proliferation of A549 lung cancer cells at low nM range. In addition, potency of inhibiting A549 proliferation correlated well with its binding affinity to PKCs for this series of compounds. In other words, higher affinity binders had stronger inhibitory effects on A549 proliferation. This further support the notion that activation, rather than inhibition, of certain PKC isoforms is required to block proliferation of cancer cells, some of which may harbor K-Ras mutations. This is in sharp contrast to previous literature and common belief that inhibition of PKC is necessary to block cancer cell growth (Kang, 2014, New Journal of Science, 2014:1-36). Data presented here is in agreement with recent findings that many loss-of-function but not gain-of-function mutations of PKC isoforms have been identified in many human cancers (Antal et al., 2015, Cell, 160:489-502).

[2] = biological target: T1, C1b domain of human PKCδ (Homo sapiens, UniProt Q05655); assay: Competitive 3H-PDBu binding to C1b domain of PKCδ; conditions: Ki PKCδ, 3H-PDBu competition
T1 construct: Genes encoding C1b domains of human PKCα, δ, ε, θ, and PKD1 (PKCμ) were synthesized; made in house; host or cells: E. coli BL21(DE3)
T1 sequence (Q05655 230-280 limits assumed): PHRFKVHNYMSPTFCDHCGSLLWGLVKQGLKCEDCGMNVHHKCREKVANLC
Procedure: (§1) Compounds described in this disclosure were tested for binding affinity to C1b domain of PKC isoforms. Compound binding affinity to C1b domain of PKC isoforms was derived from competitive binding assay using radioactive tracer ^3H-PDBu and recombinant GST-C1b or full-length of human PKC proteins based on modified procedures from Methods in Molecular Biology, vol.
(§2) Genes encoding C1b domains of human PKCα, δ, ε, θ, and PKD1 (PKCμ) were synthesized and inserted into pGEX-2TK or pGEX-4T1 vectors for expression and production of GST-C1b proteins in E. coli BL21(DE3) via IPTG induction. The target proteins were purified by glutathione sepharose 4B and followed by ion exchange chromatography if needed to achieve purity >70%. Aliquots of the purified proteins were stored at −80 degree for binding assay (storage buffer: 20 mM Tris pH 8.0, 200 mM NaCl, 10% glycerol, 1 mM DTT).
(§3) The plate was incubated at 37° C. on a shaker at 300 rpm for 10 minutes and then put on ice for 20 minutes. […] The bottom of the filter plate was sealed and 50 μL of MicroScint-20 (PerkinElmer) cocktail was added to each well. ^3H-PDBu trapped in each well was counted using PerkinElmer MicroBeta2 Reader. Data were analyzed using GraphPad Prism5 with the model “log(inhibitor) vs. response-variable slope” to fit the IC50, and then IC50 was transformed to Ki using Cheng-Prusoff equation: Ki=IC50/(1+added radio ligand/Kd). Kd is the binding affinity of each protein preparation to ^3H-PDBu, determined experimentally.

[3] = biological target: T2, C1b domain of human PKCα (Homo sapiens, UniProt P17252); assay: biochemical; format: binding; conditions: Ki PKCα, 3H-PDBu competition
T2 construct: Genes encoding C1b domains of human PKCα, δ, ε, θ, and PKD1 (PKCμ) were synthesized; made in house; host or cells: E. coli BL21(DE3)
Procedure: as §1, §2
The plate was incubated at 37° C. on a shaker at 300 rpm for 10 minutes and then put on ice for 20 minutes. […] The bottom of the filter plate was sealed and 50 μL of MicroScint-20 (PerkinElmer) cocktail was added to each well. ^3H-PDBu trapped in each well was counted using PerkinElmer MicroBeta2 Reader. […] Kd is the binding affinity of each protein preparation to ^3H-PDBu, determined experimentally.

[4] = biological target: T3, C1b domain of human PKD1 (PKCμ) (Homo sapiens, UniProt Q15139); assay: biochemical; format: binding
T3 construct: Genes encoding C1b domains of human PKCα, δ, ε, θ, and PKD1 (PKCμ) were synthesized; made in house; host or cells: E. coli BL21(DE3)
T3 sequence (Q15139 270-320 limits assumed): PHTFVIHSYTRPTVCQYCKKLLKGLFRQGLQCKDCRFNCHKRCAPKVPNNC
Procedure: as §1, §2, §3

[5] = A549, 96 hours incubation, CellTiter Glo

SMILES: CC1=C[C@H]2[C@@]3(O)[C@H](C)C[C@]4(OC(=O)[C@@H](N)C5Cc6ccccc6C5)[C@H]([C@@H]3C=C(CCl)C[C@]2(O)C1=O)C4(C)C [K101-C1329-Cl]
- IC50 [1, 5]: 0.06 to 0.1 µM

SMILES: CC1=C[C@H]2[C@@]3(O)[C@H](C)C[C@]4(OC(=O)[C@@H](N)CCS(C)(=O)=O)[C@H]([C@@H]3C=C(CO)C[C@]2(O)C1=O)C4(C)C [Compound K101-C1326]
- Ki [2]: 400 to 800 nM
- Ki [3]: > 8000 nM
- Ki [4]: 200 to 400 nM
- IC50 ([1]; A549, 96 h): > 30 µM

SMILES: CC1=C[C@H]2[C@@]3(O)[C@H](C)C[C@]4(OC(=O)[C@@H](N)C56CC(F)(C5)C6)[C@H]([C@@H]3C=C(CO)C[C@]2(O)C1=O)C4(C)C [Compound K101-C137302]
- IC50 [1, 5]: 10 to 30 µM

SMILES: CC1=C[C@H]2[C@@]3(O)[C@H](C)C[C@]4(OC(=O)[C@@H](N)CCc5ccccc5)[C@H]([C@@H]3C=C(CO)C[C@]2(O)C1=O)C4(C)C [Compound K101-C135602]
- Ki [2]: 1 to 30 nM
- Ki [3]: 200 to 400 nM

SMILES: CC1=C[C@H]2[C@@]3(O)[C@H](C)C[C@]4(OC(=O)[C@H](O)Cc5ccccc5)[C@H]([C@@H]3C=C(CO)C[C@]2(O)C1=O)C4(C)C [Compound K101-C1355]
- Ki [2]: 100 to 200 nM
- Ki [4]: 30 to 60 nM
- IC50 ([1]; A549, 96 h): 2 to 5 µM

SMILES: CC1=C[C@H]2[C@@]3(O)[C@H](C)C[C@]4(OC(=O)[C@@H](O)Cc5ccccc5)[C@H]([C@@H]3C=C(CO)C[C@]2(O)C1=O)C4(C)C [Compound K101-C1354]
- Ki [2]: 30 to 60 nM
- Ki [3]: 1000 to 2000 nM
- Ki [4]: 1 to 30 nM
- IC50 ([1]; A549, 96 h): 0.2 to 0.6 µM

SMILES: CCCC[C@H](N)C(=O)O[C@@]12C[C@@H](C)[C@@]3(O)[C@@H](C=C(CO)C[C@]4(O)C(=O)C(C)=C[C@@H]34)[C@@H]1C2(C)C [Compound K101-C1317]
- Ki [2]: 1 to 30 nM
- Ki [3]: 800 to 1000 nM
- Ki [4]: < 5 nM
- IC50 ([1]; A549, 96 h): 0.6 to 1 µM

SMILES: CC1=C[C@H]2[C@@]3(O)[C@H](C)C[C@]4(OC(=O)C[C@H](N)c5ccccc5)[C@H]([C@@H]3C=C(CO)C[C@]2(O)C1=O)C4(C)C [Compound K101-C1343]
- Ki [2]: 30 to 60 nM
- Ki [3]: 1000 to 2000 nM
- Ki [4]: 1 to 30 nM
- IC50 ([1]; A549, 96 h): 1 to 2 µM

SMILES: CC1=C[C@H]2[C@@]3(O)[C@H](C)C[C@]4(OC(=O)[C@@H](N)CC5CCC5)[C@H]([C@@H]3C=C(CO)C[C@]2(O)C1=O)C4(C)C [Compound K101-C1325]
- Ki [2]: 30 to 60 nM
- Ki [3]: 4000 to 6000 nM
- Ki [4]: 30 to 60 nM
- IC50 ([1]; A549, 96 h): 1 to 2 µM

SMILES: CC1=C[C@H]2[C@@]3(O)[C@H](C)C[C@]4(OC(=O)[C@@H](N)CC(C)(C)C)[C@H]([C@@H]3C=C(CO)C[C@]2(O)C1=O)C4(C)C [Compound K101-C1328]
- Ki [2]: 1 to 30 nM
- Ki [3]: 200 to 400 nM
- Ki [4]: < 5 nM
- IC50 ([1]; A549, 96 h): 0.2 to 0.6 µM

SMILES: CC1=C[C@H]2[C@@]3(O)[C@H](C)C[C@]4(OC(=O)[C@@H](N)CC5CCCC5)[C@H]([C@@H]3C=C(CO)C[C@]2(O)C1=O)C4(C)C [Compound K101-C1332]
- Ki [2]: 5 to 10 nM
- Ki [3]: 100 to 200 nM
- Ki [4]: 5 to 10 nM
- IC50 ([1]; A549, 96 h): 0.1 to 0.2 µM

SMILES: CC1=C[C@H]2[C@@]3(O)[C@H](C)C[C@]4(OC(=O)[C@@H](N)Cc5c[nH]c6ccccc56)[C@H]([C@@H]3C=C(CO)C[C@]2(O)C1=O)C4(C)C [Compound K101-C1340]
- Ki [2]: 1 to 30 nM
- Ki [3]: 200 to 400 nM
- Ki [4]: 5 to 10 nM
- IC50 ([1]; A549, 96 h): 10 to 30 µM

SMILES: CC1=C[C@H]2[C@@]3(O)[C@H](C)C[C@]4(OC(=O)C[C@H](N)Cc5ccccc5)[C@H]([C@@H]3C=C(CO)C[C@]2(O)C1=O)C4(C)C [Compound K101-C1358]
- Ki [2]: 1 to 30 nM
- Ki [3]: 200 to 400 nM
- Ki [4]: 5 to 10 nM
- IC50 ([1]; A549, 96 h): 1 to 2 µM

SMILES: CC1=C[C@H]2[C@@]3(O)[C@H](C)C[C@]4(OC(=O)CCCCCCCCCCCC(=O)O)[C@H]([C@@H]3C=C(CO)C[C@]2(O)C1=O)C4(C)C [Compound K101-C1335]
- Ki [2]: 200 to 400 nM
- Ki [3]: > 8000 nM
- IC50 ([1]; A549, 96 h): 10 to 30 µM

SMILES: CC1=C[C@H]2[C@@]3(O)[C@H](C)C[C@]4(OC(=O)[C@H](N)CCCCCCc5ccccc5)[C@H]([C@@H]3C=C(COC(=O)[C@@H](N)C(C)C)C[C@]2(O)C1=O)C4(C)C [K101-C134801C2003]
- IC50 [1, 5]: 0.03 to 0.06 µM

SMILES: CC1=C[C@H]2[C@@]3(O)[C@H](C)C[C@]4(OC(=O)[C@H](N)CCCc5ccccc5)[C@H]([C@@H]3C=C(CO)C[C@]2(O)C1=O)C4(C)C [Compound K101-C1351]
- Ki [2]: 30 to 60 nM
- Ki [3]: 1000 to 2000 nM
- Ki [4]: 1 to 30 nM
- IC50 ([1]; A549, 96 h): 0.2 to 0.6 µM

SMILES: CCCCCCCCCCCCCCCCCCC(CC(=O)O[C@@]12C[C@@H](C)[C@@]3(O)[C@@H](C=C(CO)C[C@]4(O)C(=O)C(C)=C[C@@H]34)[C@@H]1C2(C)C)C(=O)O (stereo partly drawn) [Compound K101-C1352]
- Ki [2]: 200 to 400 nM
- Ki [3]: 4000 to 6000 nM
- Ki [4]: 200 to 400 nM
- IC50 ([1]; A549, 96 h): 5 to 10 µM

SMILES: CC1=C[C@H]2[C@@]3(O)[C@H](C)C[C@]4(OC(=O)[C@@H](N)C56CC(C(F)(F)F)(C5)C6)[C@H]([C@@H]3C=C(CO)C[C@]2(O)C1=O)C4(C)C [Compound K101-C1375]
- IC50 [1, 5]: 0.06 to 0.1 µM

SMILES: CC1=C[C@H]2[C@@]3(O)[C@H](C)C[C@]4(OC(=O)[C@@H](N)CC5CC5)[C@H]([C@@H]3C=C(CO)C[C@]2(O)C1=O)C4(C)C [Compound K101-C1330]
- Ki [3]: 1000 to 2000 nM
- Ki [4]: 30 to 60 nM
- IC50 ([1]; A549, 96 h): 2 to 5 µM

SMILES: CN[C@@H](CC1CCCCC1)C(=O)O[C@@]12C[C@@H](C)[C@@]3(O)[C@@H](C=C(CO)C[C@]4(O)C(=O)C(C)=C[C@@H]34)[C@@H]1C2(C)C [Compound K101-C1364]
- Ki [2]: 1 to 30 nM
- Ki [3]: 200 to 400 nM
- IC50 ([1]; A549, 96 h): 0.2 to 0.6 µM

SMILES: CC1=C[C@H]2[C@@]3(O)[C@H](C)C[C@]4(OC(=O)[C@H](N)C56CC(F)(C5)C6)[C@H]([C@@H]3C=C(CO)C[C@]2(O)C1=O)C4(C)C [Compound K101-C137301]
- IC50 [1, 5]: 10 to 30 µM

SMILES: CSC[C@H](N)C(=O)O[C@@]12C[C@@H](C)[C@@]3(O)[C@@H](C=C(CO)C[C@]4(O)C(=O)C(C)=C[C@@H]34)[C@@H]1C2(C)C [Compound K101-C1339]
- Ki [2]: 200 to 400 nM
- Ki [3]: 4000 to 6000 nM
- IC50 ([1]; A549, 96 h): 5 to 10 µM
